Results reported in publication PMC9505538, “P-Glycoprotein (MDR1/ABCB1) Restricts Brain Accumulation of the Novel EGFR Inhibitor EAI045 and Oral Elacridar Coadministration Enhances Its Brain Accumulation and Oral Exposure” (Pharmaceuticals, 2022).
“And” between values parts separate entries of the source, which are not always exact repeats. Identical values can stand only once.

Assay: 30-min pharmacokinetic experiment with oral elacridar coadministration in WT mice
Description: Considering the potential therapeutic benefit of increasing EAI045 brain penetration, and possibly also plasma exposure, we investigated to what extent elacridar, a dual ABCB1 and ABCG2 inhibitor, could increase the brain penetration and oral exposure of EAI045. We performed a 30-min pharmacokinetic experiment with an EAI045 dose of 20 mg/kg, and elacridar at 50 mg/kg. As elacridar plasma concentration peaks around 3–4 h after oral administration, elacridar was administered orally 3 h prior to oral EAI045 administration to male WT mice. Plasma and tissue EAI045 levels were determined 30 min later.
Mice (Mus musculus) were bred in the Netherlands Cancer Institute and housed and handled according to institutional guidelines complying with Dutch and EU legislation. Animals used were WT, Abcb1a/1b^-/- [39], Abcg2^-/- [40], Abcb1a/1b;Abcg2^-/- [41], Cyp3a^-/- [42], and Oatp1a/1b^-/- [43] mice of a >99% FVB/N strain background. Homozygous CYP3A4 humanized transgenic mice (Cyp3aXAV) were generated by cross-breeding of transgenic mice with stable human CYP3A4 expression in the liver or intestine, respectively, in a Cyp3a^-/- background. Proper functionality of the knockout and transgenic strains was monitored by regular testing with a variety of drug substrates. All the mice used were between 10 and 15 weeks of age. Animals were kept in a temperature-controlled environment with a 12 h light/12 h dark cycle and received a standard diet (Transbreed, SDS Diets, Technilab-BMI, The Netherlands) and acidified water ad libitum. Depending on the type of experiment, 5 or 6 mice were tested in each experimental group. All experimental animal protocols, including power calculations, were ethically assessed and designed under the nationally approved DEC/CCD project AVD301002016595 (approval date, 10 August 2016) and evaluated and approved by the institutional animal care and use committee (IACUC) of the Netherlands Cancer Institute.
EAI045 was dissolved in dimethyl sulfoxide (DMSO) at a concentration of […], and then diluted with a mixture of polysorbate 80/ethanol (1:1, v/v), and further diluted with 5% (w/v) glucose in water to yield a concentration of 2 mg/mL. Final concentrations for DMSO, polysorbate 80, ethanol, and glucose in the dosing solution were 5%, 2.5%, 2.5%, and 4.5% (v/v/v/w), respectively. Elacridar hydrochloride was dissolved in DMSO at a concentration of 53 mg/mL, then diluted with a mixture of polysorbate 80, ethanol, and water [20:13:67, (v/v/v)] to yield a concentration of 5 mg/mL elacridar. The final oral dose of elacridar was 50 mg/kg body weight. All dosing solutions were prepared freshly on the day of experiment.
To minimize variation in absorption, mice were fasted for about 3 h before EAI045 was administered by gavage into the stomach (n = 5–6), using a blunt-ended needle. EAI045 was administered orally at dose of 20 mg/kg. Elacridar was administered orally at a dose of 50 mg/kg, 3 h prior to oral EAI045 administration. For the 24- or 4-h experiments, tail vein blood samplings were performed at 5 min, 30 min, 1, 2, 4, and 8 h, or 5 min, 15 min, 30 min, 1, and 2 h time points after oral administration of EAI045, respectively, using microvettes containing heparin. For the 30 min experiments, blood samplings were performed at 5, 10, and 20 min from the tail vein. At the last time point (24 h, 4 h, or 30 min), mice were anesthetized with isoflurane and blood was collected by cardiac puncture. Then, mice were sacrificed by cervical dislocation and brain, liver, spleen, kidneys, lung, small intestine with content (SIWC), and testis were rapidly removed and weighed. Tissues were homogenized on ice in appropriate volumes of 2% (w/v) BSA. Blood samples were centrifuged at 9000× g for 6 min at 4 °C immediately after collection.

[1] = WT + elacridar compared to Abcb1a/1b;Abcg2-/- mice, 30 min
[2] = male WT mice + elacridar, EAI045 20 mg/kg oral, 30 min
[3] = male WT mice + elacridar, EAI045 20 mg/kg oral, plasma

O=C(Nc1nccs1)C(c1cc(F)ccc1O)N1Cc2ccccc2C1=O (stereo not drawn) [EAI045]
plasma AUC0–30min, fold increase (WT + elacridar compared to Abcb1a/1b;Abcg2-/- mice): 2.4 fold | SIWC%, fold decrease [1]: 3.5 fold | SIWC%-to-plasma ratio, fold decrease [1]: 8.6 fold | Fold change Cbrain (WT + elacridar vs WT, 30 min): 17 fold and 17.0 fold | Fold change Ctestis (WT + elacridar vs WT, 30 min): 8.7 fold | Fold change Kp.SIWC% (WT + elacridar vs WT, 30 min): 0.032 fold | Fold change Kp.brain (WT + elacridar vs WT, 30 min): 5.4 fold | Fold change Kp.testis (WT + elacridar vs WT, 30 min): 2.6 fold | Fold change SIWC% (WT + elacridar vs WT, 30 min): 0.13 fold | Kp.SIWC% (SIWC%-to-plasma ratio), fold decrease (WT + elacridar vs WT, 30 min): 30.8 fold | SIWC%, fold decrease (WT + elacridar vs WT, 30 min): 7.5 fold | Fold change AUC (WT + elacridar vs WT, plasma AUC0–30min, EAI045 20 mg/kg oral, 20 mg/kg): 4 fold and 4.0 fold | Plasma AUC0–30min (male WT mice + elacridar 50 mg/kg oral 3 h before, EAI045 20 mg/kg oral): 549 ± 82 ***^. +++ h*ng/mL | Cbrain (brain concentration) [2]: 395.9 ± 123.1 ***^. +++ ng/g | Ctestis (testis concentration) [2]: 198.7 ± 58.9 ***^. +++ ng/g | Kp.SIWC% (SIWC%-to-plasma ratio) [2]: 5.13 ± 2.63 | Kp.brain (brain-to-plasma ratio) [2]: 0.560 ± 0.200 | Kp.testis (testis-to-plasma ratio) [2]: 0.280 ± 0.096 | SIWC% (drug percentage of dose in small intestine with content) [2]: 4.00 ± 2.57 % | Cmax [3]: 1512 ± 260 ng/mL | tmax [3]: 10 to 30 min
